One data set deals with HCl-ethanol erosion. Nature of the data set: HCl-ethanol erosion model (cytoprotective action on gastrointestinal tract). It counts as in vivo, SD rats. The note with it: Rattus norvegicus, 0.5 h; oral, 30 min. before HCl-ethanol mixture; total length of erosions; read-out: ED₅₀. As to the method:
To a mixture of 2-[(2-Isobutylamino)benzylthio]imidazole (1 g) obtained in (i) above, chloroform (40 ml), and methanol (10 ml) was portionwise added under chilling with ice, m-chloroperbenzoic acid (equivalent molar amount). After completion of the reaction was confirmed using TLC, the reaction mixture was made alkaline by addition of saturated aqueous sodium hydrogen carbonate and extracted with chloroform. The chloroform portion was then treated successively with three portions of 10 ml of 0.1 N aqueous NaOH and one portion of 20 ml of 0.1 N aqueous NaOH to transfer the desired product into the aqueous portions. The obtained four aqueous portions were separately made ammonia-alkaline by addition of 20% aqueous […]. The precipitated crystals were collected, washed sufficiently with ether, and dried to give 0.6 g (yield: 56.5%) of the desired product as a white crystalline powder. […]
SD rats were fested for 24 hours. […] Length (mm) of each erosion was measured, and the total length (mm) of the erosions observed in one rat was calculated. […]

Data set [1] can be described thus: Stability in acidic conditions (Britten-Robinson buffer, HPLC). It counts as physicochemical. As to the method: The stability of the compound in acidic conditions was determined at 37 °C in Britten-Robinson buffer which had been previously adjusted to pH 3.0, 5.0 or 7.0. The compound was dissolved in this buffer by supersonic waves, and the filtered solution was monitored by high performance liquid chromatography (HPLC) (Tosoh TSK-gel ODS-120T 4.6-250mm, CH₃CN/10 mM phosphate buffer (pH 6.0), 1 ml/min., room temperature (25 °C), detector ultraviolet (UV) 240-250 nm). Half-lives (T1/2) were determined from linear regression of the concentration vs. time (h).

Read-outs that look alike come from different tables or passages of the source.

On to `CC(C)CNc1ccccc1C[S+]([O-])c1ncc[nH]1` (stereo not shown) [Imidazole derivative A, 2-[(2-Isobutylamino)benzylsulfinyl]imidazole], for which the ED50 in the data set with HCl-ethanol erosion worked out at 3.6 mg/kg. Further, the half-life in data set [1] (britten-robinson buffer, pH 3) is 1.8 min; in data set [1] (britten-robinson buffer, pH 5), 55.8 min; in data set [1] (britten-robinson buffer, pH 7) it was 3780 min.

Take `COc1ccc2[nH]c([S+]([O-])Cc3ncc(C)c(OC)c3C)nc2c1` (stereo not shown) [Omeprazole, reference compound]: the half-life in data set [1] (pH 3.0, 37°C, Britten-Robinson buffer, read-out: (T1/2) (converted)) was 3 min; in data set [1] (pH 5.0, 37°C, Britten-Robinson buffer, read-out: (T1/2) (converted)), 20.4 min; in data set [1] (pH 7.0, 37°C, Britten-Robinson buffer, read-out: (T1/2) (converted)) it was 1620 min.

Source of the values: patent EP0584588A1, “Anti-ulcer composition containing imidazole derivative” (NIPPON CHEMIPHAR CO., LTD., priority 1992, dated 1994).
